Structures can show the parent of a compound that is named as a salt.
Key:
AKT1 = AKT1 (Homo sapiens, UniProt P31749, S473D); assay: Determination of the IC50 for AKT1 (HTRF); assay type: biochemical; conditions: AKT1 without PH domain, activated by PDK1
Procedure: Determination of the IC50 for AKT1
The inhibitory potential of the compounds is evaluated by HTRF, a time-resolved fluorescence technique based on non-radiative energy transfer (FRET). […] This phosphorylation allows the kinase activity of AKT1 to be activated.
Starting with a 10 mM solution of inhibitors, 3 μl are taken and placed in a 96-well polypropylene plate containing 27 μl of 100% DMSO. The various test compounds are diluted in cascade by taking 15 μl of compound, to which are added 30 μl of 100% DMSO.
The various reaction components are added in the following manner:
Next, 10 μl of the inhibitor solution are added. Finally, the reaction is initiated by adding 10 μl of a solution containing both 100 μM of ATP and 10 μM of biotinylated peptide. The sequence of this peptide is as follows: biot-[…] (reference Neosystem SP000560). The plate is then covered with a plastic film, agitated and finally incubated at RT for 30 minutes. […] After incubation overnight at 4° C., the plate is read using an Ultra evolution spectrophotometer from Tecan. […] All the tests are performed in duplicate and the mean of the two tests is calculated.
For each point, a delta F is calculated in the following manner:
(§1) R(Ratio)=counts665 nm/counts620 nm
ΔF % is calculated by the Tecan Ultra Evolution machine.

[1] = target: T1, Human S6K1 (24-421) T412E protein (Homo sapiens, UniProt P23443, T412E); assay: Determination of the IC50 for S6K1 (HTRF substrate phosphorylation test); assay type: biochemical; conditions: S6K1 activated by PDK1, ATP 30 μM
T1 construct: Human S6K1 (24-421) T412E protein; made in house; host or cells: Sf21 insect cells
Procedure: Determination of the IC50 for S6K1
The inhibitory potential of the compounds for S6K1 is evaluated in an enzymatic test of phosphorylation of substrate in HTRF (Homogenous Time-Resolved Fluorescence) format. Human S6K1 (24-421) T412E protein is expressed in sf21 cells and purified by chromatography on a nickel chelate column. It is activated by PDK1.
The test comprises two steps, both performed at RT. The phosphorylation reaction takes place during the first step and the revelation step is performed during the second. […] The final concentrations of compounds thus obtained during the incubation period range from 10 μM to 0.17 nM and the concentration of enzyme is 2 nM. After incubation for 20 minutes, the reaction is stopped and the revelation initiated by addition of 30 μl of a mixture of streptavidin XL 665 Xlent, ref. 611SAXLB Cis bio international, and a europium cryptate-coupled anti-phospho-GSK3 antibody, ref. 64CUSKAZ Cis bio international, dissolved in the revelation buffer (HEPES/NaOH 166.7 mM, EDTA 221.7 mM, KF 667.7 mM, BSA 0.167%, pH 7.0). The reaction takes place in a black half-well plate ref. 3694 Costar.
A mixture of the reaction medium after each addition of reagent is obtained by agitation for a few minutes at 700-1000 rpm on a Heidolph Titramax 100 machine. The reading is taken on a TECAN Ultra Evolution machine after at least one night and up to 3 nights at 4° C. The reading settings are as follows: excitation wavelength 320 nm, emission wavelengths 620 and 665 nm, lag time 150 μs, integration time 500 μs.
For each point, the ΔF % is calculated as follows:
as §1
The IC50 values are calculated by means of the XLfit4 205 equation.

[2] = system: MEF-IGF1 murine fibroblast cells; assay: IGF1-dependent proliferation of MEF-IGF1 cells via incorporation of [14C]-thymidine; assay type: cell-based; conditions: [14C]-thymidine incorporation, IGF1 stimulated, 72 hours; read-out: IC50 MEF-IGF
From the text: a. Study of the IGF1-Dependent Proliferation of MEF-IGF1 Murine Fibroblast Cells Measured via Incorporation of [14C]-Thymidine
This test is based on the incorporation of [^14C]-thymidine into the DNA of the cells for the S phase of the cell cycle during cell division. The cell line used in this test is the MEF/3T3 Tet-Off Clone 18 line obtained by stable transfection of the human receptor IGF1R in murine MEF/3T3 Tet-Off fibroblasts. To measure the IGF1-dependent cell proliferation, the cells were deprived of serum and cultured for 3 days in the serum-free culture medium in the presence of the growth factor IGF1 which stimulates the proliferation of MEF-IGF1 cells.
Test of Incorporation of [^14C]-Thymidine into MEF-IGF1 Cells
On day 1, the cells were inoculated with 7500 cells per well in Cytostar 96-well microplates (Amersham (GE) RPNQ0162) in 200 μl of EMEM medium (EMEM, Biowhittaker, #BE12-662F) containing 10% foetal calf serum (FCS, TET-BD Biosciences Tet System Approved FBS US-Sourced, #8630-1) and 1% PSG (Penicillin-Streptomycin-Glutamine (PSG), Gibco #10378-016), and incubated at 37° C., 5% CO2, for 24 hours. On day 2, the cells were washed in the FCS-free EMEM culture medium containing 1% PSG, and incubated in 170 μl of this serum-free culture medium at 37° C., 5% CO2, for 24 hours. On day 3, the cells were incubated with 10 μl of IGF1 (2 μg/ml of final concentration; recombinant human IGF-1, R & D Systems, #291-G1), 10 μl (0.1 μCi) of [^14C]-Thymidine (NEN NEC-568) plus 10 μl of increasing concentrations of the test molecules, diluted in dimethyl sulfoxide (DMSO, Sigma D2650). The molecules were added in a volume of 10 μl of a 20-fold concentrated solution in a final volume of 200 μl, the final percentage of DMSO being 0.1%. The treated cells were incubated at 37° C., 5% CO2, for 72 hours. The incorporation of [^14C]-Thymidine was quantified in cpm units (counts per minute) by counting the radioactivity 72 hours after the start of the treatment, using a Micro-Beta radioactivity counter (Perkin-Elmer). The tests were performed in duplicate.
i) the mean±s.e.m. of each series of well replicates was calculated;
ii) the background noise is calculated by preparing cell-free, IGF1-free and untreated control wells; this control was performed in 4 replicates. The background noise was removed at each measurement;
iii) the maximum response is given by positive control wells containing cells in the presence of IGF1 but untreated; this control was performed in 4 replicates;
iv) the minimum response is given by negative control wells containing IGF1-free and untreated cells; this control was performed in 4 replicates;
The IC50 values were calculated by […] with the XLfit software (IDBS, UK) using formula 205.

T1 sequence (P23443 24-421 T412E): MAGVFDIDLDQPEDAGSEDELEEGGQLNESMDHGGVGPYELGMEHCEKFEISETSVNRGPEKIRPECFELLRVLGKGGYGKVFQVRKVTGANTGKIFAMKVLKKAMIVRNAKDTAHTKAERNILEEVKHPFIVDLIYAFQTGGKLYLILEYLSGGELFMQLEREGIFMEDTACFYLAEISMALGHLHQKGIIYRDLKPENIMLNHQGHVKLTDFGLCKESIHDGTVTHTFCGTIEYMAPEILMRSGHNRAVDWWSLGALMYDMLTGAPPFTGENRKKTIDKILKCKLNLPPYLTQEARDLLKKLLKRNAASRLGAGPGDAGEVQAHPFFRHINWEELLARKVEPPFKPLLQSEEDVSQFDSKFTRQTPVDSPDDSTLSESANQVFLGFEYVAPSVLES
Sequence of AKT1 (P31749 118-480 S473D limits assumed): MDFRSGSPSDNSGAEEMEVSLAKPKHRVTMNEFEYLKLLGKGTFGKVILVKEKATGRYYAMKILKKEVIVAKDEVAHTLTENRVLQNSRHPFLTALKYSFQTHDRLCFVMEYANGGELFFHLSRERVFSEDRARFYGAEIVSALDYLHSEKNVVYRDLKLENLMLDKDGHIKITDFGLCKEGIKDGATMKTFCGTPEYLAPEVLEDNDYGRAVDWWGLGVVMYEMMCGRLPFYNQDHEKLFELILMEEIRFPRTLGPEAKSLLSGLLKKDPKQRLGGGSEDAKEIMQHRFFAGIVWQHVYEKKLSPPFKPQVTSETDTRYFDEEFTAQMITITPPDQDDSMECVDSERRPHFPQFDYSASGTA

| Molecule | melting point | IC50 (AKT1) | IC50 [1] | IC50 [2] |
| --- | --- | --- | --- | --- |
| O=C(Nc1ccc2[nH]nc(C#Cc3ccccc3)c2c1)N[C@@H](c1ccc(Cl)c(Cl)c1)[C@@H]1CCCCN1 (as salt: fumaric acid salt) [Ex 26, 1-{(S)-(3,4-Dichlorophenyl)[(2S)-piperid-2-yl]methyl}-3-[3-(phenylethynyl)-1H-indazol-5-yl]urea] | 160 °C |  |  |  |
| CN1CCCCC1C(NC(=O)Nc1ccc2[nH]nc(CCc3ccccc3)c2c1)c1ccccc1 (as salt: fumaric acid salt) [Ex 27, 1-[(1-Methylpiperid-2-yl)(phenyl)methyl]-3-[3-(2-phenylethyl)-1H-indazol-5-yl]urea((S,2S),(R,2R))] | 205 °C |  |  |  |
| CN1CCCCC1C(c1ccccc1)N(C)C(=O)Nc1ccc2[nH]ncc2c1 (as salt: fumaric acid salt) [Ex 32, 3-(1H-Indazol-5-yl)-1-methyl-1-[(1-methylpiperid-2-yl)phenylmethyl]urea((S,2S),(R,2R))] | 194 °C |  |  |  |
| CN(C(=O)NC(c1ccccc1)C1CCCCN1C)c1ccc2[nH]ncc2c1 (as salt: fumaric acid salt) [Ex 33, 1-(1H-Indazol-5-yl)-1-methyl-3-[(1-methylpiperid-2-yl)(phenyl)methyl]urea((S,2S),(R,2R))] | 205 °C |  |  |  |
| O=C(Nc1ccc2[nH]ncc2c1)N[C@@H](c1cc(F)cc(Cl)c1)[C@@H]1CCCCN1 (as salt: hydrochloride) [Ex 3, 1-{(S)-(3-Chloro-5-fluorophenyl)[(2S)-piperid-2-yl]methyl}-3-(1H-indazol-5-yl)urea] | 208 °C |  |  |  |
| CN1CCCCC1C(NC(=O)Nc1ccc2[nH]ncc2c1)c1cc(F)cc(Cl)c1 (centres unmarked) (as salt: hydrochloride) [Ex 11, 1-[(3-Chloro-5-fluorophenyl)(1-methylpiperid-2-yl)methyl]-3-(1H-indazol-5-yl)urea] | 192 °C |  |  |  |
| Nc1n[nH]c2ccc(NC(=O)N[C@@H](c3ccc(Cl)c(Cl)c3)[C@@H]3CCCCN3)cc12 (as salt: hydrochloride) [Ex 29, 1-(3-Amino-1H-indazol-5-yl)-3-{(S)-(3,4-dichlorophenyl)[(2S)-piperid-2-yl]methyl}urea] | 214 °C |  |  |  |
| O=C(Nc1ccc2[nH]ncc2c1)OC(c1cc(Cl)cc(Cl)c1)C1CCCCN1 (as salt: hydrochloride) [Ex 34, (3,5-Dichlorophenyl)[piperid-2-yl]methyl 1H-indazol-5-ylcarbamate((S,2S),(R,2R))] | 220 °C |  |  |  |
| O=C(Nc1ccc2[nH]ncc2c1)O[C@@H](c1cc(F)cc(Cl)c1)[C@@H]1CCCCN1 (as salt: hydrochloride) [Ex 35, (S)-(3-Chloro-5-fluorophenyl)[(2S)-piperid-2-yl]methyl 1H-indazol-5-ylcarbamate] | 226 °C |  |  |  |
| CN1CCCCC1C(OC(=O)Nc1ccc2[nH]ncc2c1)c1cc(F)cc(Cl)c1 (centres unmarked) (as salt: hydrochloride) [Ex 36, (3-Chloro-5-fluorophenyl)(1-methylpiperid-2-yl)methyl 1H-indazol-5-ylcarbamate] | 172 °C |  |  |  |
| O=C(Nc1ccc2[nH]ncc2c1)O[C@@H](c1ccc(Cl)c(Cl)c1)[C@@H]1CCCCN1 (as salt: hydrochloride) [Ex 38b, (S)-(3,4-Dichlorophenyl)[(2S)-piperid-2-yl]methyl 1H-indazol-5-ylcarbamate] | 194 °C |  |  |  |
| O=C(Nc1ccc2[nH]ncc2c1)N[C@@H](c1ccccc1)[C@@H]1CCCCN1 [Ex 8, 1-{(S)-(Phenyl)[(2S)-piperid-2-yl]methyl}-3-(1H-indazol-5-yl)urea] | 195 °C | < 100 nM | 500 to 2000 nM |  |
| O=C(Nc1ccc2[nH]ncc2c1)N[C@H](c1ccccc1)[C@H]1CCCCN1 [Ex 9, 1-{(R)-(Phenyl)[(2R)-piperid-2-yl]methyl}-3-(1H-indazol-5-yl)urea] | 147 to 149 °C | 100 to 500 nM | 500 to 2000 nM |  |
| C=CCN1CCCC[C@H]1[C@@H](NC(=O)Nc1ccc2[nH]ncc2c1)c1ccccc1 [Ex 10, 1-{(S)-(Phenyl)[(2S)-1-allylpiperid-2-yl]methyl}-3-(1H-indazol-5-yl)urea] | 195 °C | 100 to 500 nM |  |  |
| Nc1n[nH]c2ccc(NC(=O)N[C@@H](c3ccc(Cl)c(Cl)c3)[C@@H]3CCCCN3)cc12 [Ex 29, 1-(3-Amino-1H-indazol-5-yl)-3-{(S)-(3,4-dichlorophenyl)[(2S)-piperid-2-yl]methyl}urea] |  | < 100 nM | 500 to 2000 nM |  |
| O=C(Nc1ccc2[nH]ncc2c1)O[C@H](c1ccc(Cl)c(Cl)c1)[C@@H]1CCCCN1 [Ex 38c, (R)-(3,4-Dichlorophenyl)[(2S)-piperid-2-yl]methyl 1H-indazol-5-ylcarbamate] |  | 100 to 500 nM | 100 to 500 nM |  |
| O=C(Nc1ccc2[nH]ncc2c1)O[C@H](c1cc(F)cc(Cl)c1)[C@@H]1CCCCN1 [Ex 40, (R)-(3-Chloro-5-fluorophenyl)[(2S)-piperid-2-yl]methyl 1H-indazol-5-ylcarbamate] |  | 500 to 2000 nM | 500 to 2000 nM |  |
| O=C(Nc1ccc2[nH]ncc2c1)O[C@@H](c1cccc(C(=O)NC2CCCCC2)c1)[C@@H]1CCCCN1 [Ex 47, (S)-(3-Cyclohexylcarbamoylphenyl)-(S)-piperid-2-ylmethyl (1H-Indazol-5-yl)carbamate] |  | < 100 nM | 100 to 500 nM |  |
| (6-Fluoro-1H-indazol-5-yl)-(S)-(3-chloro-5-fluorophenyl)-(S)-piperid-2-ylmethyl carbamate [Ex 50] |  | < 100 nM |  | 3160 nM |
